Measured values published in ChEMBL document CHEMBL2407058, “Design, Synthesis, and Antiplasmodial Activity of Hybrid Compounds Based on (2R,3S)-N-Benzoyl-3-phenylisoserine” (ACS Med Chem Lett, 2013).

Assays:
Plasmodium falciparum [1] = assay: Antiplasmodial activity against erythrocytic stage of multidrug-resistant Plasmodium falciparum Thailand K1 infected in human A positive RBC after 48 hrs by [3H]hypoxanthine incorporation assay; type: functional, organism-based
Plasmodium falciparum [2] = assay: Antiplasmodial activity against erythrocytic stage of chloroquine-resistant Plasmodium falciparum IndoChina W2 infected in human A positive RBC after 48 hrs by [3H]hypoxanthine incorporation assay; type: functional, organism-based
L6 = assay: Cytotoxicity against rat L6 cells after 70 hrs by Alamar Blue assay; type: cell-based; conditions: L6, 70 h
[3] = Selectivity index, ratio of IC50 for rat L6 cells to IC50 for erythrocytic stage of chloroquine-resistant Plasmodium falciparum IndoChina W2; type: toxicity, cell-based; conditions: read-out: Ratio IC50
Plasmodium falciparum [4] = assay: Ratio of dihydroartemisinin IC50 to compound IC50 for erythrocytic stage of chloroquine-resistant Plasmodium falciparum IndoChina W2; type: functional

SMILES: O=C(N[C@@H](c1ccccc1)[C@@H](O)C(=O)O)c1ccccc1
- IC50 (Plasmodium falciparum [1]): > 10000 nM
- IC50 (Plasmodium falciparum [2]): > 10000 nM
- IC50 (L6): > 100000 nM

SMILES: OCc1cccc(Nc2ccnc3cc(Cl)ccc23)c1
- IC50 (Plasmodium falciparum [1]): 300 nM
- IC50 (Plasmodium falciparum [2]): 300 nM
- IC50 (L6): 21100 nM
- selectivity ratio [3]: 70.4

SMILES: O=C(N[C@@H](c1ccccc1)[C@@H](O)C(=O)NCCNc1ccnc2cc(Cl)ccc12)c1ccccc1
- IC50 (Plasmodium falciparum [1]): 360 nM
- IC50 (Plasmodium falciparum [2]): 560 nM
- IC50 (L6): 15100 nM
- selectivity ratio [3]: 27

SMILES: O=C(N[C@@H](c1ccccc1)[C@@H](O)C(=O)NCCCNc1ccnc2cc(Cl)ccc12)c1ccccc1
- IC50 (Plasmodium falciparum [1]): 1000 nM
- IC50 (Plasmodium falciparum [2]): 480 nM
- IC50 (L6): 28300 nM
- selectivity ratio [3]: 59

SMILES: [N-]=[N+]=NCCCNc1ccnc2cc(Cl)ccc12
- IC50 (Plasmodium falciparum [1]): 330 nM
- IC50 (Plasmodium falciparum [2]): 170 nM
- IC50 (L6): 9480 nM
- selectivity ratio [3]: 55.8

SMILES: [N-]=[N+]=NCc1cccc(Nc2ccnc3cc(Cl)ccc23)c1
- IC50 (Plasmodium falciparum [1]): 1110 nM
- IC50 (Plasmodium falciparum [2]): 550 nM
- IC50 (L6): 76600 nM
- selectivity ratio [3]: 139

SMILES: [N-]=[N+]=NCc1ccccc1Nc1ccnc2cc(Cl)ccc12
- IC50 (Plasmodium falciparum [2]): 220 nM

SMILES: O=C(N[C@@H](c1ccccc1)[C@@H](O)C(=O)NCc1cn(CCNc2ccnc3cc(Cl)ccc23)nn1)c1ccccc1
- IC50 (Plasmodium falciparum [1]): 1110 nM
- IC50 (Plasmodium falciparum [2]): 2710 nM
- IC50 (L6): 85600 nM
- selectivity ratio [3]: 31.6

SMILES: O=C(N[C@@H](c1ccccc1)[C@@H](O)C(=O)NCc1cn(CCCNc2ccnc3cc(Cl)ccc23)nn1)c1ccccc1
- IC50 (Plasmodium falciparum [1]): 390 nM
- IC50 (Plasmodium falciparum [2]): 1690 nM
- IC50 (L6): 88200 nM
- selectivity ratio [3]: 52.2

SMILES: O=C(N[C@@H](c1ccccc1)[C@@H](O)C(=O)NCc1cn(Cc2cccc(Nc3ccnc4cc(Cl)ccc34)c2)nn1)c1ccccc1
- IC50 (Plasmodium falciparum [1]): 2440 nM
- IC50 (Plasmodium falciparum [2]): 280 nM
- IC50 (L6): 67900 nM
- selectivity ratio [3]: 242

SMILES: O=C(N[C@@H](c1ccccc1)[C@@H](O)C(=O)NCc1cn(Cc2ccccc2Nc2ccnc3cc(Cl)ccc23)nn1)c1ccccc1
- IC50 (Plasmodium falciparum [1]): 3240 nM
- IC50 (Plasmodium falciparum [2]): 1050 nM
- IC50 (L6): 30100 nM
- selectivity ratio [3]: 28.6

SMILES: CC(=O)O[C@@H](C(=O)O)[C@@H](NC(=O)c1ccccc1)c1ccccc1
- IC50 (Plasmodium falciparum [1]): > 10000 nM
- IC50 (Plasmodium falciparum [2]): > 10000 nM
- IC50 (L6): > 100000 nM

SMILES: C[C@H]1[C@H](OC(=O)[C@H](O)[C@@H](NC(=O)c2ccccc2)c2ccccc2)O[C@@H]2O[C@@]3(C)CC[C@H]4[C@H](C)CC[C@@H]1[C@@]24OO3
- IC50 (Plasmodium falciparum [1]): 0.7 nM
- IC50 (Plasmodium falciparum [2]): 5 nM
- Ratio IC50 (Plasmodium falciparum [4]): 3
- IC50 (L6): 1030 nM
- selectivity ratio [3]: 206

SMILES: CC(=O)O[C@@H](C(=O)O[C@@H]1O[C@@H]2O[C@@]3(C)CC[C@H]4[C@H](C)CC[C@@H]([C@H]1C)[C@@]24OO3)[C@@H](NC(=O)c1ccccc1)c1ccccc1
- IC50 (Plasmodium falciparum [1]): 0.5 nM
- IC50 (Plasmodium falciparum [2]): 5 nM
- Ratio IC50 (Plasmodium falciparum [4]): 3
- IC50 (L6): 830 nM
- selectivity ratio [3]: 166

SMILES: OCc1ccccc1Nc1ccnc2cc(Cl)ccc12
- IC50 (Plasmodium falciparum [2]): 40 nM

SMILES: O=C(N[C@@H](c1ccccc1)[C@@H](O)C(=O)OCCNc1ccnc2cc(Cl)ccc12)c1ccccc1
- IC50 (Plasmodium falciparum [2]): 390 nM

SMILES: CC(=O)O[C@@H](C(=O)OCCNc1ccnc2cc(Cl)ccc12)[C@@H](NC(=O)c1ccccc1)c1ccccc1
- IC50 (Plasmodium falciparum [1]): 250 nM
- IC50 (Plasmodium falciparum [2]): 220 nM
- IC50 (L6): 25200 nM
- selectivity ratio [3]: 114

SMILES: O=C(N[C@@H](c1ccccc1)[C@@H](O)C(=O)OCCCNc1ccnc2cc(Cl)ccc12)c1ccccc1
- IC50 (Plasmodium falciparum [2]): 130 nM

SMILES: CC(=O)O[C@@H](C(=O)OCCCNc1ccnc2cc(Cl)ccc12)[C@@H](NC(=O)c1ccccc1)c1ccccc1
- IC50 (Plasmodium falciparum [1]): 220 nM
- IC50 (Plasmodium falciparum [2]): 160 nM
- IC50 (L6): 24200 nM
- selectivity ratio [3]: 151

SMILES: OCCNc1ccnc2cc(Cl)ccc12
- IC50 (Plasmodium falciparum [2]): 550 nM

SMILES: OCCCNc1ccnc2cc(Cl)ccc12
- IC50 (Plasmodium falciparum [2]): 410 nM

SMILES: [N-]=[N+]=NCCNc1ccnc2cc(Cl)ccc12
- IC50 (Plasmodium falciparum [2]): 290 nM

SMILES: C[C@H]1[C@@H](O)O[C@@H]2O[C@@]3(C)CC[C@H]4[C@H](C)CC[C@@H]1[C@@]24OO3 (mixture of isomers) [ARTENIMOL]
- IC50 (Plasmodium falciparum [1]): 1.8 nM
- IC50 (Plasmodium falciparum [2]): 3 nM
- IC50 (L6): 730 nM
- selectivity ratio [3]: 243

SMILES: C[C@@H]1CC[C@H]2[C@@H](C)C(=O)O[C@@H]3O[C@@]4(C)CC[C@@H]1[C@]32OO4 [ARTEMISININ]
- IC50 (Plasmodium falciparum [1]): 3.2 nM
- IC50 (Plasmodium falciparum [2]): 15 nM

SMILES: COc1cc([C@@H]2c3cc4c(cc3[C@H](O)[C@H]3COC(=O)[C@H]23)OCO4)cc(OC)c1OC [PODOFILOX]
- IC50 (L6): 20 nM
